Assays:
Format in all cases: in vivo
[1] = system: large crabgrass (Digitaria sanguinalis, DIGSA); assay: Pre-emerge test, greenhouse herbicide activity screening; details: rated 14 days after application, 0 = no damage, 100 = complete death
Outline: (§1)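 Compounds in acetone were track-sprayed at 187 l/ha, 15–1000 g ai/ha, onto sandy loam pots. Pre-emerge seeds were sown one day before spraying, with surface watering afterwards. Post-emerge plants were at the 2–3 leaf stage and sprayed with 0.25% v/v non-ionic surfactant. Injury was rated 0–100 at 14 days.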

[2] = system: lambsquarters (Chenopodium album, CHEAL); assay: as above; details: rated 14 days after application, 0 = no damage, 100 = complete death
Outline: as §1

[3] = system: velvetleaf (Abutilon theophrasti, ABUTH); assay: as above; details: rated 14 days after application, 0 = no damage, 100 = complete death
Outline: as §1

[4] = system: sicklepod (Cassia obtusifolia, CASOB); assay: as above; details: rated 14 days after application, 0 = no damage, 100 = complete death
Outline: as §1

[5] = system: common ragweed (Ambrosia artemisizfolia L., AMBEL); assay: as above; details: rated 14 days after application, 0 = no damage, 100 = complete death
Outline: as §1

[6] = system: green foxtail (Setaria viridis, SETVI); assay: as above; details: rated 14 days after application, 0 = no damage, 100 = complete death
Outline: as §1

[7] = system: johnsongrass (Sorghum halepense, SORHA); assay: as above; details: rated 14 days after application, 0 = no damage, 100 = complete death
Outline: as §1

[8] = system: ivyleaf morningglory (Ipomoea hederacea, IPOHE); assay: as above; details: rated 14 days after application, 0 = no damage, 100 = complete death
Outline: as §1

[9] = system: barnyardgrass (Echinochloa crus-galli, ECHCG); assay: as above; details: rated 14 days after application, 0 = no damage, 100 = complete death
Outline: as §1

[10] = system: field corn (Zea mays L., var. Dekalb 535, CORN); assay: Pre-emerge test, crop safety; details: rated 14 days after application, 0 = no damage, 100 = complete death
Outline: (§2)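 Plants grown in 10 cm pots of sandy loam mix received acetone-dissolved compounds through a moving flat-fan nozzle. Doses ranged from 15 to 1000 g ai/ha. Pre-emerge pots were seeded one day earlier, post-emerge pots 8–21 days earlier. Fourteen days on, each pot was graded 0–100 for damage.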

[11] = system: upland rice (Oryza sp., var. Tebonnet, RICE); assay: Pre-emerge test, crop safety; details: rated 14 days after application, 0 = no damage, 100 = complete death
Outline: as §2

[12] = system: large crabgrass (Digitaria sanguinalis, DIGSA); assay: Post-emerge test, greenhouse herbicide activity screening; details: post-emerge, 14 days after application, rating scale 0-100
Outline: (§3)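 Compounds in acetone were track-sprayed at 15–1000 g ai/ha: pre-emergence onto soil sown the previous day, then top-watered to incorporate and later bottom-watered; post-emergence onto 2–3 leaf plants with 0.25% v/v surfactant, bottom-watered only. Ratings on a 0–100 phytotoxicity scale were taken at day 14.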

[13] = system: lambsquarters (Chenopodium album, CHEAL); assay: as above; details: post-emerge, 14 days after application, rating scale 0-100
Outline: as §3

[14] = system: velvetleaf (Abutilon theophrasti, ABUTH); assay: as above; details: post-emerge, 14 days after application, rating scale 0-100
Outline: as §3

[15] = system: sicklepod (Cassia obtusifolia, CASOB); assay: as above; details: post-emerge, 14 days after application, rating scale 0-100
Outline: as §3

[16] = system: common ragweed (Ambrosia artemisizfolia L., AMBEL); assay: as above; details: post-emerge, 14 days after application, rating scale 0-100
Outline: as §3

[17] = system: green foxtail (Setaria viridis, SETVI); assay: as above; details: post-emerge, 14 days after application, rating scale 0-100
Outline: as §3

[18] = system: johnsongrass (Sorghum halepense, SORHA); assay: as above; details: post-emerge, 14 days after application, rating scale 0-100
Outline: as §3

[19] = system: ivyleaf morningglory (Ipomoea hederacea, IPOHE); assay: as above; details: post-emerge, 14 days after application, rating scale 0-100
Outline: as §3

[20] = system: redroot pigweed (Amaranthus retroflexus, AMARE); assay: as above; details: post-emerge, 14 days after application, rating scale 0-100
Outline: as §3

[21] = system: barnyardgrass (Echinochloa crus-galli, ECHCG); assay: as above; details: post-emerge, 14 days after application, rating scale 0-100
Outline: as §3

[22] = system: field corn (Zea mays L., var. Dekalb 535, CORN); assay: Post-emerge test, crop safety; details: post-emerge, 14 days after application, rating scale 0-100
Outline: as §1

[23] = system: upland rice (Oryza sp., var. Tebonnet, RICE); assay: Post-emerge test, crop safety; details: post-emerge, 14 days after application, rating scale 0-100
Outline: as §1

[24] = system: redroot pigweed (Amaranthus retroflexus, AMARE); assay: Pre-emerge test, greenhouse herbicide activity screening; details: rated 14 days after application, 0 = no damage, 100 = complete death
Outline: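 Sandy loam pots; pre-emerge: sown 1 d pre-spray, surface-watered after, then bottom-watered. Post-emerge: sown 8–21 d before, 2–3 leaf stage, + 0.25% v/v NIS, bottom-watered. Acetone, 187 l/ha track spray, 15–1000 g ai/ha. 0–100 injury score, day 14.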

COc1c(Cl)cc(F)c(-n2c(=O)cc(C(F)(F)F)n(C)c2=O)c1NC(=O)c1ccc(CCl)cc1 [2-36]
60: Pre-emerge Herbicidal Activity, phytotoxicity rating (0-100), IPOHE ([8]; 250 g ai/ha) | phytotoxicity rating CASOB ([15]; 63 g ai/ha) | phytotoxicity rating CASOB ([15]; 250 g ai/ha) | phytotoxicity rating SETVI ([17]; 250 g ai/ha)
90: Pre-emerge Herbicidal Activity, phytotoxicity rating (0-100), CHEAL ([2]; 63 g ai/ha) | Pre-emerge Herbicidal Activity, phytotoxicity rating (0-100), SETVI ([6]; 250 g ai/ha)
30: Pre-emerge Herbicidal Activity, phytotoxicity rating (0-100), DIGSA ([1]; 250 g ai/ha) | Pre-emerge Herbicidal Activity, phytotoxicity rating (0-100), AMBEL ([5]; 250 g ai/ha)
10: Pre-emerge Herbicidal Activity, phytotoxicity rating (0-100), CASOB ([4]; 63 g ai/ha) | Pre-emerge Herbicidal Activity, phytotoxicity rating (0-100), ECHCG ([9]; 250 g ai/ha) | phytotoxicity rating SORHA ([18]; 63 g ai/ha) | phytotoxicity rating SORHA ([18]; 250 g ai/ha) | phytotoxicity rating ECHCG ([21]; 63 g ai/ha) | phytotoxicity rating CORN ([22]; 63 g ai/ha)
100: Pre-emerge Herbicidal Activity, phytotoxicity rating (0-100), CHEAL ([2]; 250 g ai/ha) | Pre-emerge Herbicidal Activity, phytotoxicity rating (0-100), ABUTH ([3]; 63 g ai/ha) | Pre-emerge Herbicidal Activity, phytotoxicity rating (0-100), ABUTH ([3]; 250 g ai/ha) | phytotoxicity rating CHEAL ([13]; 250 g ai/ha) | phytotoxicity rating ABUTH ([14]; 63 g ai/ha) | phytotoxicity rating ABUTH ([14]; 250 g ai/ha) | phytotoxicity rating IPOHE ([19]; 63 g ai/ha) | phytotoxicity rating IPOHE ([19]; 250 g ai/ha) | phytotoxicity rating AMARE ([20]; 63 g ai/ha) | phytotoxicity rating AMARE ([20]; 250 g ai/ha) | Pre-emerge Herbicidal Activity, phytotoxicity rating (0-100), AMARE ([24]; 63 g ai/ha) | Pre-emerge Herbicidal Activity, phytotoxicity rating (0-100), AMARE ([24]; 250 g ai/ha)
40: Pre-emerge phytotoxicity rating (0-100), crop damage, RICE ([11]; 250 g ai/ha) | phytotoxicity rating RICE ([23]; 250 g ai/ha)
95: phytotoxicity rating CHEAL ([13]; 63 g ai/ha) | phytotoxicity rating AMBEL ([16]; 250 g ai/ha)
70: Pre-emerge Herbicidal Activity, phytotoxicity rating (0-100), CASOB ([4]; 250 g ai/ha)
80: phytotoxicity rating AMBEL ([16]; 63 g ai/ha)
25: Pre-emerge Herbicidal Activity, phytotoxicity rating (0-100), SETVI ([6]; 63 g ai/ha) | phytotoxicity rating RICE ([23]; 63 g ai/ha)
50: phytotoxicity rating SETVI ([17]; 63 g ai/ha)
0: Pre-emerge Herbicidal Activity, phytotoxicity rating (0-100), DIGSA ([1]; 63 g ai/ha) | Pre-emerge Herbicidal Activity, phytotoxicity rating (0-100), AMBEL ([5]; 63 g ai/ha) | Pre-emerge Herbicidal Activity, phytotoxicity rating (0-100), SORHA ([7]; 63 g ai/ha) | Pre-emerge Herbicidal Activity, phytotoxicity rating (0-100), IPOHE ([8]; 63 g ai/ha) | Pre-emerge Herbicidal Activity, phytotoxicity rating (0-100), ECHCG ([9]; 63 g ai/ha) | Pre-emerge phytotoxicity rating (0-100), crop damage, CORN ([10]; 63 g ai/ha) | Pre-emerge phytotoxicity rating (0-100), crop damage, CORN ([10]; 250 g ai/ha) | Pre-emerge phytotoxicity rating (0-100), crop damage, RICE ([11]; 63 g ai/ha) | phytotoxicity rating ECHCG ([21]; 250 g ai/ha)
20: Pre-emerge Herbicidal Activity, phytotoxicity rating (0-100), SORHA ([7]; 250 g ai/ha) | phytotoxicity rating DIGSA ([12]; 63 g ai/ha) | phytotoxicity rating DIGSA ([12]; 250 g ai/ha) | phytotoxicity rating CORN ([22]; 250 g ai/ha)

COc1c(Cl)cc(F)c(-n2c(=O)cc(C(F)(F)F)n(C)c2=O)c1NC(=O)c1ccccc1F [2-39]
100: Pre-emerge Herbicidal Activity, phytotoxicity rating (0-100), DIGSA ([1]; 250 g ai/ha) | Pre-emerge Herbicidal Activity, phytotoxicity rating (0-100), CHEAL ([2]; 63 g ai/ha) | Pre-emerge Herbicidal Activity, phytotoxicity rating (0-100), CHEAL ([2]; 250 g ai/ha) | Pre-emerge Herbicidal Activity, phytotoxicity rating (0-100), ABUTH ([3]; 63 g ai/ha) | Pre-emerge Herbicidal Activity, phytotoxicity rating (0-100), ABUTH ([3]; 250 g ai/ha) | Pre-emerge Herbicidal Activity, phytotoxicity rating (0-100), CASOB ([4]; 63 g ai/ha) | Pre-emerge Herbicidal Activity, phytotoxicity rating (0-100), CASOB ([4]; 250 g ai/ha) | Pre-emerge Herbicidal Activity, phytotoxicity rating (0-100), AMBEL ([5]; 63 g ai/ha) | Pre-emerge Herbicidal Activity, phytotoxicity rating (0-100), AMBEL ([5]; 250 g ai/ha) | Pre-emerge Herbicidal Activity, phytotoxicity rating (0-100), SETVI ([6]; 63 g ai/ha) | Pre-emerge Herbicidal Activity, phytotoxicity rating (0-100), SETVI ([6]; 250 g ai/ha) | Pre-emerge Herbicidal Activity, phytotoxicity rating (0-100), SORHA ([7]; 250 g ai/ha) | Pre-emerge Herbicidal Activity, phytotoxicity rating (0-100), IPOHE ([8]; 250 g ai/ha) | Pre-emerge Herbicidal Activity, phytotoxicity rating (0-100), ECHCG ([9]; 250 g ai/ha) | phytotoxicity rating ABUTH ([14]; 63 g ai/ha) | phytotoxicity rating ABUTH ([14]; 250 g ai/ha) | phytotoxicity rating IPOHE ([19]; 250 g ai/ha) | Pre-emerge Herbicidal Activity, phytotoxicity rating (0-100), AMARE ([24]; 63 g ai/ha) | Pre-emerge Herbicidal Activity, phytotoxicity rating (0-100), AMARE ([24]; 250 g ai/ha)
20: phytotoxicity rating SETVI ([17]; 63 g ai/ha) | phytotoxicity rating CORN ([22]; 63 g ai/ha)
30: phytotoxicity rating RICE ([23]; 63 g ai/ha)
70: Pre-emerge phytotoxicity rating (0-100), crop damage, CORN ([10]; 63 g ai/ha) | phytotoxicity rating AMARE ([20]; 63 g ai/ha) | phytotoxicity rating CORN ([22]; 250 g ai/ha) | phytotoxicity rating RICE ([23]; 250 g ai/ha)
50: phytotoxicity rating DIGSA ([12]; 250 g ai/ha) | phytotoxicity rating AMBEL ([16]; 63 g ai/ha)
0: phytotoxicity rating DIGSA ([12]; 63 g ai/ha) | phytotoxicity rating ECHCG ([21]; 63 g ai/ha)
10: phytotoxicity rating SORHA ([18]; 63 g ai/ha)
95: Pre-emerge Herbicidal Activity, phytotoxicity rating (0-100), IPOHE ([8]; 63 g ai/ha) | Pre-emerge phytotoxicity rating (0-100), crop damage, CORN ([10]; 250 g ai/ha) | phytotoxicity rating CHEAL ([13]; 250 g ai/ha) | phytotoxicity rating AMBEL ([16]; 250 g ai/ha) | phytotoxicity rating AMARE ([20]; 250 g ai/ha)
80: phytotoxicity rating SETVI ([17]; 250 g ai/ha)
60: Pre-emerge Herbicidal Activity, phytotoxicity rating (0-100), SORHA ([7]; 63 g ai/ha) | phytotoxicity rating CASOB ([15]; 63 g ai/ha) | phytotoxicity rating SORHA ([18]; 250 g ai/ha) | phytotoxicity rating ECHCG ([21]; 250 g ai/ha)
90: Pre-emerge Herbicidal Activity, phytotoxicity rating (0-100), ECHCG ([9]; 63 g ai/ha) | Pre-emerge phytotoxicity rating (0-100), crop damage, RICE ([11]; 63 g ai/ha) | phytotoxicity rating CHEAL ([13]; 63 g ai/ha) | phytotoxicity rating CASOB ([15]; 250 g ai/ha)
99: Pre-emerge Herbicidal Activity, phytotoxicity rating (0-100), DIGSA ([1]; 63 g ai/ha) | Pre-emerge phytotoxicity rating (0-100), crop damage, RICE ([11]; 250 g ai/ha) | phytotoxicity rating IPOHE ([19]; 63 g ai/ha)

Reference: patent US6355799B1, “Substituted benzene compounds, process for their preparation, and herbicidal and defoliant compositions containing them” (ISK Americas Incorporated, priority 1997, dated 2002)
